This is an account of results in ChEMBL document CHEMBL1201862, “PubChem BioAssay data set” (2004).

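Protocol summary: plate cells (96-well), add compound at 5 concentrations, incubate 48 h, interpolate endpoints linearly. GI50 marks 50% less growth.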 The source made the active and inactive calls. No stated cut-off is given here; in the data, active = GI50 up to about 1.1 µM and inactive = higher.

Common to all, as to assay: DTP human tumour cell line panel, 48 h
Experiment [1] has as its system HCT-15.
Experiment [2] has as its system HOP-62.
Experiment [3] concerns HT-29.
In experiment [4] the test system is IGROV-1.
Experiment [5] deals with K562.
Experiment [6] has as its system M19-MEL.
Experiment [7] deals with NCI-H23.
In experiment [8] the test system is OVCAR-3.
The test system of experiment [9] is OVCAR-4.
Experiment [10] concerns OVCAR-5.
Experiment [11] relates to OVCAR-8.
Experiment [12] concerns SF-539.
Experiment [13] relates to SK-MEL-2.
The subject of experiment [14] is SNB-19.
Experiment [15] has as its system TK-10.
The subject of experiment [16] is UACC-257.
The subject of experiment [17] is NCI-H226.
Experiment [18] concerns Hs-578T.
Experiment [19] deals with MDA-MB-231.
For experiment [20], the system named is PC-3.

As to `COc1ccc(/C=C2\CCc3ccccc3C2=O)cc1OC`, the GI50 (as a rule, the concentration that inhibits growth by half) in experiment [1] is 17.2 µM; in experiment [2], 76.7 µM (inactive); in experiment [3], 27.8 µM (inactive); in experiment [4], 27.4 µM (inactive); in [5], 23.2 µM (inactive); in experiment [6] it was 30.1 µM (inactive). In addition, the GI50 in experiment [7] is 19.6 µM (inactive); in experiment [8], 33.6 µM (inactive); in [9] it was 17.8 µM (inactive); in [10] it was 67.3 µM (inactive); in [11], 32.1 µM (inactive); in [12], 22.3 µM (inactive). Moreover, the GI50 is 31.1 µM (inactive) in [13], 46 µM (inactive) in [14], 32.6 µM (inactive) in experiment [15] and 18.9 µM (inactive) in experiment [16].

As to `COc1ccc(SS(=O)(=O)c2ccc(OC)cc2)cc1`, the GI50 was 36.7 µM in experiment [1]; 23.8 µM (inactive) in experiment [2]; 32.1 µM (inactive) in [3]; 10 µM (inactive) in [4]; 21.7 µM (inactive) in experiment [5]; 19.5 µM (inactive) in experiment [6]. Besides, the GI50 in [17] is 23.6 µM (inactive); in experiment [7], 26.1 µM (inactive); in experiment [8], 18.2 µM (inactive); in experiment [10] it was 30 µM (inactive); in experiment [11], 16.6 µM (inactive); in [12], 18.8 µM (inactive). Further, the GI50 was 36 µM (inactive) in experiment [13], 24.4 µM (inactive) in [14], 23.3 µM (inactive) in experiment [15] and 22.9 µM (inactive) in experiment [16].

On to `Cn1c(=O)n(C2(C)CSC2)c2ccccc21`, for which the GI50 was over 100 µM in experiment [1]; > 100 µM (inactive) in experiment [2]; > 100 µM (inactive) in [3]; > 100 µM (inactive) in experiment [4]; > 100 µM (inactive) in experiment [5]; > 100 µM (inactive) in experiment [6]. For the same compound, the GI50 in experiment [17], in [7], in experiment [9], in experiment [10], in experiment [11] and in experiment [12] was > 100 µM (inactive) each time. Moreover, the GI50 in experiment [14], in [15] and in [16] was > 100 µM (inactive) each time.

For the compound `O=[N+]([O-])c1ccc(Cl)c(C2SCc3nc4ccccc4n32)c1` (stereo not drawn), the GI50 in [3] is 36 µM (inactive); in experiment [4], 46.2 µM (inactive); in experiment [5], 27.7 µM (inactive); in [6], 29.6 µM (inactive); in [17] it was 24.1 µM (inactive); in experiment [7] it was 33.2 µM (inactive). Moreover, the GI50 in experiment [8] was 36.6 µM (inactive); in [10], 27.4 µM (inactive); in [11], 43.3 µM (inactive); in experiment [12], 31.9 µM (inactive); in experiment [13], 50.9 µM (inactive); in [14], 41.5 µM (inactive). Also, the figures for the GI50 in [15] and in experiment [16] were 64.6 µM (inactive) and 28.1 µM (inactive), respectively.

As for `Cc1ccc(S(=O)(=O)N/N=C/CN2C(=O)c3ccccc3C2=O)cc1`, the GI50 in experiment [1] was over 100 µM; in experiment [2], > 100 µM (inactive); in experiment [3] it was > 100 µM (inactive); in experiment [4], > 100 µM (inactive); in experiment [5] it was > 100 µM (inactive); in experiment [6] it was > 100 µM (inactive). Further, the GI50 was 82.2 µM (inactive) in experiment [17]; > 100 µM (inactive) in experiment [7]; > 100 µM (inactive) in experiment [9]; > 100 µM (inactive) in [11]; > 100 µM (inactive) in experiment [12]; > 100 µM (inactive) in experiment [13]. Also, the GI50 in experiment [14], in experiment [15] and in experiment [16] was > 100 µM (inactive) throughout.

For `CC(c1ccc2c(c1)CCC1C2CC2OC23CC=CC(=O)[C@]13C)C1C[C@]2(C)O[C@]2(C)[C@H](O)O1` (stereo partly drawn), the GI50 in experiment [1] was 82.4 µM; in [2], 0.791 µM (active); in [3], 47.1 µM (inactive); in [4] it was 90.6 µM (inactive); in experiment [5], 3.14 µM (inactive); in experiment [6], 34.4 µM (inactive). Moreover, the GI50 in experiment [17] is 12.1 µM (inactive); in experiment [7], 0.219 µM (active); in [8] it was 19.2 µM (inactive); in experiment [10] it was > 100 µM (inactive); in experiment [11], 37 µM (inactive); in experiment [12], 82.4 µM (inactive). For the same compound, the GI50 is 52.2 µM (inactive) in [13], 15.9 µM (inactive) in [14], > 100 µM (inactive) in [15] and 11.1 µM (inactive) in [16].

`CNC(=O)C1CCc2nnc(-c3ccccc3)n21` (stereo not drawn): the GI50 in [1] is over 100 µM; in experiment [2] it was > 100 µM (inactive); in [4], > 100 µM (inactive); in [5] it was > 100 µM (inactive); in experiment [6], > 100 µM (inactive); in experiment [17], > 100 µM (inactive). For the same compound, the GI50 in [8], in experiment [9], in experiment [12], in experiment [13], in experiment [14] and in experiment [15] was > 100 µM (inactive) throughout. For the same compound, in [16], the GI50 is > 100 µM (inactive).

Turning to `OC1(c2cccs2)c2cccc(Cl)c2C(O)(c2cccs2)c2c(Cl)cccc21` (stereo not drawn), the GI50 is over 100 µM in experiment [1]; 57.9 µM (inactive) in experiment [2]; > 100 µM (inactive) in [3]; 9.84 µM (inactive) in experiment [18]; 88.5 µM (inactive) in experiment [4]; > 100 µM (inactive) in [5]. For the same compound, the GI50 in experiment [19] was 18.5 µM (inactive); in [17], > 100 µM (inactive); in experiment [7], 54.6 µM (inactive); in experiment [8] it was > 100 µM (inactive); in experiment [9], > 100 µM (inactive); in experiment [10], > 100 µM (inactive). Besides, the GI50 in experiment [11] was 58.9 µM (inactive); in experiment [20], 99.3 µM (inactive); in experiment [12], 37 µM (inactive); in [13] it was 37.2 µM (inactive); in [14] it was 33.2 µM (inactive); in experiment [15], > 100 µM (inactive). Besides, the GI50 in experiment [16] is > 100 µM (inactive).

For the compound `Cc1ccc2nc(CN3CCCC(O)C3)cc(=O)n2c1` (stereo not drawn), the GI50 in experiment [1] is over 100 µM; in experiment [2], > 100 µM (inactive); in experiment [3] it was > 100 µM (inactive); in experiment [18], > 100 µM (inactive); in experiment [4] it was > 100 µM (inactive); in [5], > 100 µM (inactive). Also, the GI50 in [19], in experiment [17], in experiment [7], in [8], in [9] and in experiment [10] was > 100 µM (inactive) each time. Also, the GI50 in [11], in experiment [20], in experiment [12], in experiment [13], in experiment [14] and in [15] was > 100 µM (inactive) each time. The GI50 in [16] was > 100 µM (inactive).
